The record followed here is patent US11254686B1 (Corvus Pharmaceuticals, Inc., priority 2017, dated 2022).

Assay [1] deals with adenosine A2B receptor (Homo sapiens (Human), UniProt P29275). Description: Adenosine receptor activity assay (Table 1), A2B activity. Type of assay: biochemical. As to conditions: for Ratio: A2A activity to A2B activity (A2A/A2B); for IC50: read-out: Ave A2B cAMP IC50.
For assay [2], the target named is adenosine A2A receptor (Homo sapiens (Human), UniProt P29274). Description: Adenosine receptor activity assay (Table 1), A2A activity. To be noted: read-out: Ave A2A cAMP IC50. Type of assay: biochemical.
For assay [3], the target named is T1, adenosine A1 receptor (Homo sapiens (Human), UniProt P30542). Description: A1 cAMP IC50 assay (Table 1). The class given is biochemical.
The target in assay [4] is T2, adenosine A3 receptor (Homo sapiens (Human), UniProt P0DMS8). Description: A3 cAMP IC50 assay (Table 1). The class given is biochemical.
For assay [5], the target named is T1, adenosine A1 receptor. Description: Adenosine receptor activity assay (Table 1), A1 cAMP. Type of assay: cell-based.
The target in assay [6] is T2, adenosine A3 receptor. Description: Adenosine receptor activity assay (Table 1), A3 cAMP. The class given is cell-based.

Chain of adenosine A2B receptor (P29275 whole entry): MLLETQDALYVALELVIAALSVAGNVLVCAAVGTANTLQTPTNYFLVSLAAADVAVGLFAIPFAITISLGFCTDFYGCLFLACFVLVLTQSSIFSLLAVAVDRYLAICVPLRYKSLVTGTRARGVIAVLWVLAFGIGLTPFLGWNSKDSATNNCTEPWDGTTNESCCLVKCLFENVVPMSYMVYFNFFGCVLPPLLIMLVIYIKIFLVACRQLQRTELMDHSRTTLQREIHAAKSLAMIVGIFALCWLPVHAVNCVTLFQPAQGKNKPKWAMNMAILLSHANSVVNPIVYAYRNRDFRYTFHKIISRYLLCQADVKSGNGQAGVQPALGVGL
T1 sequence (P30542 whole entry): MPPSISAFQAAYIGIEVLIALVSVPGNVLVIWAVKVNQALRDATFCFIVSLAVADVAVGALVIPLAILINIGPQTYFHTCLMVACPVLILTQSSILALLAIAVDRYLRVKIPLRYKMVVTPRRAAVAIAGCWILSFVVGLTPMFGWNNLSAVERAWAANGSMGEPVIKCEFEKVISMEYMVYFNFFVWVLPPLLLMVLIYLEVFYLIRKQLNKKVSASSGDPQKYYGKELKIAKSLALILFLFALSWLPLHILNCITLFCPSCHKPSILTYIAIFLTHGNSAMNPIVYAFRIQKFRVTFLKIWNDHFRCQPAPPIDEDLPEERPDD
Chain of adenosine A2A receptor (P29274 whole entry): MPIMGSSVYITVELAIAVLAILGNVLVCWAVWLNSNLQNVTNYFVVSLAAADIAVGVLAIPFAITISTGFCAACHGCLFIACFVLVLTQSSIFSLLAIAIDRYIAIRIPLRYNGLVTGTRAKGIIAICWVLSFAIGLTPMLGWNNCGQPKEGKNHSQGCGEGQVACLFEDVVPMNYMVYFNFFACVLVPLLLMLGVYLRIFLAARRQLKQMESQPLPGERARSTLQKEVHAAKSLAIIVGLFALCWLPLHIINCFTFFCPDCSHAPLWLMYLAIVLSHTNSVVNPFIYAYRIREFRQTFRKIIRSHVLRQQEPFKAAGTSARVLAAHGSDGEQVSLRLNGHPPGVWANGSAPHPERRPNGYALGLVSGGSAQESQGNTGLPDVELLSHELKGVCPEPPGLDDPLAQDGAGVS
T2 sequence (P0DMS8 whole entry): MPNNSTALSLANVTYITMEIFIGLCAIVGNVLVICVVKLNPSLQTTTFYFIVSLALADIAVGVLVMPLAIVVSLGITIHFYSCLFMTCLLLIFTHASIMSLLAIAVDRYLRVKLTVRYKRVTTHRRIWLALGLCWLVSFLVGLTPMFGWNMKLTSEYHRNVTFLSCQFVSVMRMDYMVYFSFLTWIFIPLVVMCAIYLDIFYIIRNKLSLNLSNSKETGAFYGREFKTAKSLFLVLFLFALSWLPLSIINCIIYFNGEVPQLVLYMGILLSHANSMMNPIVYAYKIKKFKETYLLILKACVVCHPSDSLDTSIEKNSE

For orientation: IC50 means the concentration that inhibits the measured activity by half. Regarding `C[C@H](Nc1nc(C(=O)N2CCC(F)(F)C2)c2sccc2n1)c1cccnc1` [Example Z13, (S)-(3,3-Difluoropyrrolidin-1-yl)(2-((1-(pyridin-3-yl)ethyl)amino)thieno[3,2-d]pyrimidin-4-yl)methanone], the Ratio in assay [1] is given as 3.93. Further, the IC50 is 10 to 50 nM in assay [1], 100 to 500 nM in assay [2], more than 500 nM in assay [3] and more than 500 nM in assay [4].

Regarding `C[C@H](Nc1nc(C(=O)NCc2ccccc2)c2sccc2n1)c1cccnc1` [Example Z42, (S)—N-Benzyl-2-((1-(pyridin-3-yl)ethyl)amino)thieno[3,2-d]pyrimidine-4-carboxamide], the Ratio in assay [1] is given as 0.20. The IC50 in assay [1] is 100 to 500 nM; in assay [2] it was 10 to 50 nM; in assay [3] it was 100 to 500 nM; in assay [4], 50 to 100 nM.

Regarding `COc1cccc(CNC(=O)c2nc(N[C@@H](C)c3cccnc3)nc3ccsc23)n1` [Example Z73, (S)—N-((6-Methoxypyridin-2-yl)methyl)-2-((1-(pyridin-3-yl)ethyl)amino)thieno[3,2-d]pyrimidine-4-carboxamide], the Ratio in assay [1] stood at 3.11. The IC50 in assay [1] is 10 to 50 nM; in assay [2], 50 to 100 nM; in assay [3] it was more than 500 nM; in assay [4], 50 to 100 nM.

As for `O=C(c1nc(NCc2cccc(F)c2)nc2ccsc12)N1CCCC1` [Example Z84, (2-((3-Fluorobenzyl)amino)thieno[3,2-d]pyrimidin-4-yl)(pyrrolidin-1-yl)methanone], in assay [1], the Ratio is given as 18.10. Further, the IC50 in assay [1] was 10 to 50 nM; in assay [2], more than 500 nM; in assay [3], more than 500 nM; in assay [4] it was more than 500 nM.

Turning to `C[C@H](Nc1nc(C(=O)NCc2ccccn2)c2sccc2n1)c1cccnc1` [Example Z89, (S)—N-(Pyridin-2-ylmethyl)-2-((1-(pyridin-3-yl)ethyl)amino)thieno[3,2-d]pyrimidine-4-carboxamide], the Ratio in assay [1] is reported as 0.89. Besides, the IC50 is 10 to 50 nM in assay [1], 10 to 50 nM in assay [2], more than 500 nM in assay [3] and 50 to 100 nM in assay [4].

In the case of `O=C(c1nc(NCc2cncc(Cl)c2)nc2ccsc12)N1CCCC1` [Example Z93, (2-(((5-Chloropyridin-3-yl)methyl)amino)thieno[3,2-d]pyrimidin-4-yl)(pyrrolidin-1-yl)methanone], the Ratio in assay [1] was 57.59. Further, the IC50 was 10 to 50 nM in assay [1], more than 500 nM in assay [2], more than 500 nM in assay [3] and more than 500 nM in assay [4].

Consider `O=C(c1nc(NCc2ccccn2)nc2ccsc12)N1CCCC1` [Example Z95, (2-((Pyridin-2-ylmethyl)amino)thieno[3,2-d]pyrimidin-4-yl)(pyrrolidin-1-yl)methanone], for which, in assay [1], the Ratio is on record as 8.80. The IC50 in assay [1] is 10 to 50 nM; in assay [2], 100 to 500 nM; in assay [3] it was more than 500 nM; in assay [4] it was more than 500 nM.

For the compound `C[C@H](Nc1nc(C(=O)NCc2ccc(OCC3CC3)nc2)c2sccc2n1)c1ccccn1` [Example Z107, (S)—N-((6-(Cyclopropylmethoxy)pyridin-3-yl)methyl)-2-((1-(pyridin-2-yl)ethyl)amino)thieno[3,2-d]pyrimidine-4-carboxamide], the Ratio in assay [1] came to 0.84. Also, the IC50 in assay [1] fell in the range of 50 to 100 nM; in assay [2], 50 to 100 nM; in assay [3], 100 to 500 nM; in assay [4] it was 100 to 500 nM.

In the case of “((R)-3-Methoxypyrrolidin-1-yl)(2-(((S)-1-(pyridin-2-yl)ethyl)amino)thieno[3,2-d]pyrimidin-4-yl)methanone [Example Z247]”, the Ratio in assay [1] turned out to be 2.54. Besides, the IC50 was 10 to 50 nM in assay [1], more than 500 nM in assay [5], 50 to 100 nM in assay [2] and more than 500 nM in assay [6].
